Data on five compounds can be found in paper PMC8027391, “Fangchinoline suppresses conjunctival melanoma by directly binding FUBP2 and inhibiting the homologous recombination pathway” (Cell Death & Disease, 2021).

A short description of one data set: in vitro. As to conditions: human, mrc5 cells. Details: CCK-8 growth inhibition of MRC5 normal fibroblasts (counter-screen). The method, then: (§1) The anti-proliferative activity of our in-house drugs against CM-AS16 cells was assessed using the Cell Counting Kit-8 (CCK-8) assay at a final concentration of 10 μM (Fig. 1A). […] These analogues were Chinese herbal monomers harbouring the same bisbenzylisoquinoline core. […] Fangchinoline harbours an exposed hydroxy group, which is suitable for synthesizing functionalized probes and subsequent target identification. […] Next, we assessed the anti-proliferative activity of fangchinoline against three other CM cell lines obtained from patients with a typical NRAS (CRMM2) or BRAF mutation (CRMM1 and CM2005.1)[26],[27]. […] To determine whether fangchinoline could suppress CM properties in vivo, an immunodeficient NCG mice xenograft model was created by subcutaneous inoculation of CM-AS16 cells. NCG mice comes from knocking out the Prkdc and IL2rg genes in NOD/ShiltJ mice through Crispr Cas9 technology. […] The average tumour volume of the control group was 204 mm^3, which was higher than that of the treated groups (50 mg/kg/day fangchinoline, tumour volume: […] CRMM1, CRMM2 and CM2005.1 were generously provided by Professor Martine J. Jager (Leiden University Medical Center, Leiden, The Netherlands)[47] and CM-AS16 was provided by Professor Renbin Jia (Shanghai Ninth People’s Hospital, Shanghai, China). A375 and HEK293T were obtained from American Type Culture Collection. CM-AS16 and CM2005.1 were maintained in 1640H medium, CRMM1 and CRMM2 were maintained in F12K medium, A375 and HEK293T were maintained in DMEM medium, and MRC5 was maintained in MEM medium. All mediums were supplemented with 10% FBS. Cells were cultured at 37 °C in an incubator, in a humidified atmosphere with 5% CO2, periodically checked for mycoplasma-free and validated by short tandem repeats (STR) DNA analysis at BGI Tech Solutions (Beijing Liuhe) Co., Limited.

The next data set has as its system CRMM1. Briefly: cells. Details: CCK-8 anti-proliferation assay in conjunctival melanoma cell lines. The method, then: as §1
In another data set the test system is CM2005.1. Briefly: cells. Set-up: CCK-8 anti-proliferation assay in conjunctival melanoma cell lines. The method, then: as §1
Another data set deals with CM-AS16. Put plainly: cells. Set-up: CCK-8 anti-proliferation assay in conjunctival melanoma cell lines. The method, then: as §1
In the next data set the test system is CRMM2. Put plainly: cells. Set-up: CCK-8 anti-proliferation assay in conjunctival melanoma cell lines. As for the experimental part: as §1
The target of data set [1] is T1, far upstream element binding protein 2 (FUBP2) (Homo sapiens, UniProt Q92945).
T1 construct: gene KHSRP; FUBP2 labelled with enhanced green fluorescent protein, obtained from HEK293T cells transfected with plasmids
T1 sequence (Q92945 2-711): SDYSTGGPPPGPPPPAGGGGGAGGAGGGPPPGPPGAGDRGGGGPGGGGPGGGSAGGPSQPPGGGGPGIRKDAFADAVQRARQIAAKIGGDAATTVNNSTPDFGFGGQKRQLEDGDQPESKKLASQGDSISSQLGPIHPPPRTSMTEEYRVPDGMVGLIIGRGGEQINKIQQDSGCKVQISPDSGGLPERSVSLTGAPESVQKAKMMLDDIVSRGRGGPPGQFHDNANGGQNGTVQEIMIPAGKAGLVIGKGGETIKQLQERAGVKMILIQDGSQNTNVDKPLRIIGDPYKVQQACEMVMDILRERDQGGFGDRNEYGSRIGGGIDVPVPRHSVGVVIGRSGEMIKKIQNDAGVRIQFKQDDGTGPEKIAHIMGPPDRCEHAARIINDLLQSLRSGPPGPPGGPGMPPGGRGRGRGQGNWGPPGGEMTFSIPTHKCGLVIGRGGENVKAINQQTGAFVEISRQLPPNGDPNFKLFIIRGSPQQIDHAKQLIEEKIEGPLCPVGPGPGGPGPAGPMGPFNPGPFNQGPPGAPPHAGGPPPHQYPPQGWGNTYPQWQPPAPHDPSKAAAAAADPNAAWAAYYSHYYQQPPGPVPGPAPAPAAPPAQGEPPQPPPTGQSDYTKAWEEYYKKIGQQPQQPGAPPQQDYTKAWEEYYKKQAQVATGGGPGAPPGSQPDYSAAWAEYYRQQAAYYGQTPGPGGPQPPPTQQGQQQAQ
Put plainly: microscale thermophoresis (MST, Monolith NT.[…]) with EGFP-labelled FUBP2 from transfected HEK293T cells.

[2] abbreviates: Homo sapiens, CRMM-1; read-out: IC50 (μM) CRMM1.
Where [3] appears, read: CM2005.1; read-out: IC50 (μM) CM2005.1.
[4] abbreviates: CM-AS16; read-out: IC50 (μM) CM-AS16.
The mark [5] stands for this setting: Homo sapiens, CRMM-2; read-out: IC50 (μM) CRMM2.

Molecules are shown by their SMILES. Where a name gives a salt, the structure may show the parent alone. Read-outs that look alike come from different tables or passages of the source.

As usually defined, the IC50 is the concentration needed to halve the response being measured. As for `Cn1cnc2c(F)c(Nc3ccc(Br)cc3F)c(C(=O)NOCCO)cc21` [MEK162], the CC50 in “in vitro” (read-out: IC50 (μM) MRC5) came to 6.32 ± 0.16 µM. In addition, the IC50 is above 50 µM with CRMM1 (setting [2]), 0.068 ± 0.008 µM in the data set on CM2005.1 (setting [3]), 0.0077 ± 0.0016 µM in the data set with CM-AS16 (setting [4]) and 0.0136 ± 0.0006 µM with CRMM2 (setting [5]).

Consider `COc1ccc2cc1Oc1ccc(cc1)C[C@H]1c3c(cc4c(c3Oc3cc5c(cc3OC)CCN(C)[C@@H]5C2)OCO4)CCN1C` [Cepharanthine], for which, in the data set “in vitro” (read-out: IC50 (μM) MRC5), the CC50 was 8.44 ± 0.54 µM. Besides, the IC50 in the data set on CRMM1 (setting [2]) is 4.69 ± 0.17 µM; in the data set with CM2005.1 (setting [3]) it was 7.44 ± 0.08 µM; in the data set with CM-AS16 (setting [4]) it was 1.63 ± 0.24 µM; with CRMM2 (setting [5]), 0.792 ± 0.013 µM.

On to `COc1ccc2cc1Oc1ccc(cc1)C[C@H]1c3cc(c(OC)cc3CCN1C)Oc1c(OC)c(OC)cc3c1[C@H](C2)N(C)CC3` [Tetrandrine], for which the CC50 in “in vitro” (read-out: IC50 (μM) MRC5) amounted to 5.75 ± 0.11 µM. Also, the IC50 with CRMM1 (setting [2]) was found to be 4.77 ± 0.24 µM; with CM2005.1 (setting [3]), 9.7 ± 0.07 µM; with CM-AS16 (setting [4]) it was 3.2 ± 0.06 µM; in the data set on CRMM2 (setting [5]), 2.16 ± 0.02 µM.

`COc1cc2c3cc1Oc1c(OC)c(OC)cc4c1[C@@H](Cc1cccc(c1)Oc1ccc(c(O)c1)C[C@@H]3N(C)CC2)N(C)CC4` [Berbamine Hydrochloride]: the CC50 in “in vitro” came to 9.03 ± 0.22 µM. Besides, the IC50 in the data set on CRMM1 (Homo sapiens, CRMM-1, read-out: IC50 (μM) CRMM1) was 8.16 ± 0.13 µM; with CM2005.1 (CM2005.1, read-out: IC50 (μM) CM2005.1) it was 20.2 ± 0.49 µM; in the data set with CM-AS16 (CM-AS16, read-out: IC50 (μM) CM-AS16), 8.46 ± 0.22 µM; in the data set with CRMM2 (Homo sapiens, CRMM-2, read-out: IC50 (μM) CRMM2) it was 4.14 ± 0.5 µM.

As a reminder, the Kd is the constant that tells how readily two partners part at equilibrium. Read a high Kd as weaker binding. Compound `COc1ccc2cc1Oc1ccc(cc1)C[C@H]1c3cc(c(OC)cc3CCN1C)Oc1c(O)c(OC)cc3c1[C@H](C2)N(C)CC3` [fangchinoline] registered a Kd in data set [1] of 246 µM. Moreover, the CC50 in the data set “in vitro” (read-out: IC50 (μM) MRC5) amounted to 4.35 ± 0.11 µM. Moreover, the IC50 in the data set with CRMM1 (setting [2]) is 2.68 ± 0.07 µM; in the data set on CM2005.1 (setting [3]), 7.4 ± 0.45 µM; in the data set on CM-AS16 (setting [4]), 5.67 ± 0.17 µM; in the data set on CRMM2 (setting [5]), 3.6 ± 0.05 µM.
